Source: ChEMBL document CHEMBL3044982, “Cross-resistance, inheritance and biochemical mechanisms of imidacloprid resistance in B-biotype Bemisia tabaci” (2009)
Converted amounts (≈) assume the structure as drawn.

Legend:
Format in all cases: functional
Bemisia tabaci [1] = test: Resistance factor, ratio of LC50 for adult female Bemisia tabaci B-biotype NJ-Imi (sweet potato whitefly) (G30) to LC50 for adult female B-type Bemisia tabaci NJ
Bemisia tabaci [2] = test: Resistance factor, ratio of LC50 for adult female Bemisia tabaci B-biotype NJ-Imi (sweet potato whitefly) (G15) to LC50 for adult female B-type Bemisia tabaci NJ
Bemisia tabaci [3] = test: Insecticidal activity against adult female imidacloprid-resistant Bemisia tabaci B-biotype NJ-Imi (sweet potato whitefly) (G30) in cotton leaf discs assessed as mortality treated for 10 secs prior to adult infestation measured after 72 hr by leaf-dip bioassay; settings: foliar
Bemisia tabaci [4] = test: (§1) Insecticidal activity against adult female imidacloprid-resistant Bemisia tabaci B-biotype NJ-Imi (sweet potato whitefly) (G15) in cotton leaf discs assessed as mortality treated for 10 secs prior to adult infestation measured after 72 hr by leaf-dip bioassay; settings: foliar
Bemisia tabaci [5] = test: Insecticidal activity against adult female imidacloprid-susceptible Bemisia tabaci B-biotype NJ (sweet potato whitefly) in cotton leaf discs assessed as mortality treated for 10 secs prior to adult infestation measured after 72 hr by leaf-dip bioassay; settings: foliar
Bemisia tabaci [6] = test: (§2) Insecticidal activity against female F1 progeny generated from reciprocal cross between female Bemisia tabaci B-biotype NJ-Imi (sweet potato whitefly) with male Bemisia tabaci B-biotype NJ in cotton leaf discs assessed as mortality treated for 10 secs prior to adult infestation measured after 72 hr by leaf-dip bioassay; settings: foliar
Bemisia tabaci [7] = test: Insecticidal activity against adult male Bemisia tabaci B-biotype NJ-Imi (sweet potato whitefly) (G30) in cotton leaf discs assessed as mortality treated for 10 secs prior to adult infestation measured after 72 hr by leaf-dip bioassay; settings: foliar
Bemisia tabaci [8] = test: as §1, with “female” for “female imidacloprid-resistant”, “bioassay in presence of 100 mg/L cytochrome P450 monoxygenase inhibitor, PBO” for “bioassay”; settings: foliar
Bemisia tabaci [9] = test: Insecticidal activity against adult female Bemisia tabaci B-biotype NJ (sweet potato whitefly) in cotton leaf discs assessed as mortality treated for 10 secs prior to adult infestation measured after 72 hr by leaf-dip bioassay in presence of 100 mg/L esterase inhibitor, DEF; settings: foliar
Bemisia tabaci [10] = test: Insecticidal activity against adult female Bemisia tabaci B-biotype NJ (sweet potato whitefly) in cotton leaf discs assessed as mortality treated for 10 secs prior to adult infestation measured after 72 hr by leaf-dip bioassay in presence of 100 mg/L GSH depleter, DEM; settings: foliar
Bemisia tabaci [11] = test: (§3) Insecticidal activity against adult female Bemisia tabaci B-biotype NJ (sweet potato whitefly) in cotton leaf discs assessed as mortality treated for 10 secs prior to adult infestation measured after 72 hr by leaf-dip bioassay in presence of 100 mg/L cytochrome P450 monoxygenase inhibitor, PBO; settings: foliar
Bemisia tabaci [12] = test: Resistance factor, ratio of LC50 for female B-biotype Bemisia tabaci NJ-Imi F1' (sweet potato whitefly) progeny to LC50 for adult female B-type Bemisia tabaci NJ
Bemisia tabaci [13] = test: Resistance factor, ratio of LC50 for adult male Bemisia tabaci B-biotype NJ-Imi (sweet potato whitefly) (G30) to LC50 for adult female B-type Bemisia tabaci NJ
Bemisia tabaci [14] = test: Resistance factor, ratio of LC50 for female Bemisia tabaci B-biotype NJ-Imi F1 (sweet potato whitefly) progeny to LC50 for adult female B-type Bemisia tabaci NJ
Bemisia tabaci [15] = test: as §2, with “female F1'” for “female F1”, “between male B-biotype” for “between female”, “tabaci” for “tabaci B-biotype”, “with female B-biotype” for “with male”; settings: foliar
Bemisia tabaci [16] = test: Insecticidal activity against adult female Bemisia tabaci B-biotype NJ-Imi (sweet potato whitefly) (G15) in cotton leaf discs assessed as mortality treated for 10 secs prior to adult infestation measured after 72 hr by leaf-dip bioassay in presence of 100 mg/L GSH depleter, DEM; settings: foliar
Bemisia tabaci [17] = test: Synergistic ratio of LC50 for adult female Bemisia tabaci B-biotype NJ-Imi (sweet potato whitefly) (G15) to LC50 for adult female Bemisia tabaci B-biotype NJ in presence of 100 mg/L cytochrome P450 monoxygenase inhibitor, PBO
Bemisia tabaci [18] = test: Synergistic ratio of LC50 for adult female Bemisia tabaci B-biotype NJ (sweet potato whitefly) to LC50 for adult female Bemisia tabaci B-biotype NJ in presence of 100 mg/L esterase inhibitor, DEF
Bemisia tabaci [19] = test: Synergistic ratio of LC50 for adult female Bemisia tabaci B-biotype NJ (sweet potato whitefly) to LC50 for adult female Bemisia tabaci B-biotype NJ in presence of 100 mg/L GSH depleter, DEM
Bemisia tabaci [20] = test: Synergistic ratio of LC50 for adult female Bemisia tabaci B-biotype NJ (sweet potato whitefly) to LC50 for adult female Bemisia tabaci B-biotype NJ in presence of 100 mg/L cytochrome P450 monoxygenase inhibitor, PBO
Bemisia tabaci [21] = test: Insecticidal activity against adult female Bemisia tabaci B-biotype NJ-Imi (sweet potato whitefly) (G30) in cotton leaf discs assessed as mortality treated for 10 secs prior to adult infestation measured after 72 hr by leaf-dip bioassay in presence of 100 mg/L esterase inhibitor, DEF; settings: foliar
Bemisia tabaci [22] = test: Insecticidal activity against adult female Bemisia tabaci B-biotype NJ-Imi (sweet potato whitefly) (G30) in cotton leaf discs assessed as mortality treated for 10 secs prior to adult infestation measured after 72 hr by leaf-dip bioassay in presence of 100 mg/L GSH depleter, DEM; settings: foliar
Bemisia tabaci [23] = test: as §3, with “NJ-Imi” for “NJ”, “whitefly) (G30)” for “whitefly)”; settings: foliar
Bemisia tabaci [24] = test: Insecticidal activity against adult female Bemisia tabaci B-biotype NJ-Imi (sweet potato whitefly) (G15) in cotton leaf discs assessed as mortality treated for 10 secs prior to adult infestation measured after 72 hr by leaf-dip bioassay in presence of 100 mg/L esterase inhibitor, DEF; settings: foliar
Bemisia tabaci [25] = test: Synergistic ratio of LC50 for adult female Bemisia tabaci B-biotype NJ-Imi (sweet potato whitefly) (G30)to LC50 for adult female Bemisia tabaci B-biotype NJ in presence of 100 mg/L esterase inhibitor, DEF
Bemisia tabaci [26] = test: Synergistic ratio of LC50 for adult female Bemisia tabaci B-biotype NJ-Imi (sweet potato whitefly) (G30) to LC50 for adult female Bemisia tabaci B-biotype NJ in presence of 100 mg/L GSH depleter, DEM
Bemisia tabaci [27] = test: Synergistic ratio of LC50 for adult female Bemisia tabaci B-biotype NJ-Imi (sweet potato whitefly) (G30) to LC50 for adult female Bemisia tabaci B-biotype NJ in presence of 100 mg/L cytochrome P450 monoxygenase inhibitor, PBO
Bemisia tabaci [28] = test: Synergistic ratio of LC50 for adult female Bemisia tabaci B-biotype NJ-Imi (sweet potato whitefly) (G15)to LC50 for adult female Bemisia tabaci B-biotype NJ in presence of 100 mg/L esterase inhibitor, DEF
Bemisia tabaci [29] = test: Synergistic ratio of LC50 for adult female Bemisia tabaci B-biotype NJ-Imi (sweet potato whitefly) (G15) to LC50 for adult female Bemisia tabaci B-biotype NJ in presence of 100 mg/L GSH depleter, DEM

`CC1(C)C(C=C(Cl)Cl)C1C(=O)OC(C#N)c1cccc(Oc2ccccc2)c1` (stereo not drawn) [ALPHA-CYPERMETHRIN] gave a RatioLC50 (Bemisia tabaci [1]) of 1, a RatioLC50 (Bemisia tabaci [2]) of 1 and an LC50 (Bemisia tabaci [3]) of 263 µg/mL (≈ 632 µM). It also gave an LC50 (Bemisia tabaci [4]) of 230 µg/mL (≈ 552 µM) and an LC50 (Bemisia tabaci [5]) of 226 µg/mL (≈ 543 µM).
Work on `CC[C@H](C)[C@H]1O[C@]2(C=C[C@@H]1C)C[C@@H]1C[C@@H](C/C=C(\C)[C@@H](O[C@H]3C[C@H](OC)[C@@H](O[C@H]4C[C@H](OC)[C@@H](O)[C@H](C)O4)[C@H](C)O3)[C@@H](C)/C=C/C=C3\CO[C@@H]4[C@H](O)C(C)=C[C@@H](C(=O)O1)[C@]34O)O2.CO[C@H]1C[C@H](O[C@H]2[C@H](C)O[C@@H](O[C@@H]3/C(C)=C/C[C@@H]4C[C@@H](C[C@]5(C=C[C@H](C)[C@@H](C(C)C)O5)O4)OC(=O)[C@@H]4C=C(C)[C@@H](O)[C@H]5OC/C(=C\C=C\[C@@H]3C)[C@]54O)C[C@@H]2OC)O[C@@H](C)[C@@H]1O` [ABAMECTIN] yielded a RatioLC50 (Bemisia tabaci [1]) of 1, an LC50 (Bemisia tabaci [3]) of 0.92 µg/mL and an LC50 (Bemisia tabaci [5]) of 0.8 µg/mL.
Molecule `CN(C)C(CSC(N)=O)CSC(N)=O` [CARTAP] has a RatioLC50 (Bemisia tabaci [1]) of 11, an LC50 (Bemisia tabaci [3]) of 17.4 µg/mL (≈ 73.3 µM) and an LC50 (Bemisia tabaci [5]) of 1.55 µg/mL (≈ 6.53 µM).
Molecule `CCN(Cc1ccc(Cl)nc1)/C(=C/[N+](=O)[O-])NC` [NITENPYRAM] has a RatioLC50 (Bemisia tabaci [1]) of 94, an LC50 (Bemisia tabaci [3]) of 93 µg/mL (≈ 344 µM) and an LC50 (Bemisia tabaci [5]) of 0.99 µg/mL (≈ 3.66 µM).
`C/C(=N\C#N)N(C)Cc1ccc(Cl)nc1` [ACETAMIPRID] showed a RatioLC50 (Bemisia tabaci [1]) of 143, a RatioLC50 (Bemisia tabaci [2]) of 49 and an LC50 (Bemisia tabaci [3]) of 186 µg/mL (≈ 835 µM). It also gave an LC50 (Bemisia tabaci [4]) of 63 µg/mL (≈ 283 µM) and an LC50 (Bemisia tabaci [5]) of 1.3 µg/mL (≈ 5.84 µM).
`O=[N+]([O-])/N=C1\NCCN1Cc1ccc(Cl)nc1` [IMIDACLOPRID] gave an LC50 (Bemisia tabaci [6]) of 30.9 µg/mL (≈ 121 µM), an LC50 (Bemisia tabaci [7]) of 411 µg/mL (≈ 1610 µM) and a RatioLC50 (Bemisia tabaci [1]) of 490. The RatioLC50 (Bemisia tabaci [2]) was 257, the LC50 (Bemisia tabaci [3]) was 485 µg/mL (≈ 1900 µM) and the LC50 (Bemisia tabaci [4]) was 254 µg/mL (≈ 993 µM). For the same molecule, the LC50 (Bemisia tabaci [8]) was 102 µg/mL, the LC50 (Bemisia tabaci [9]) was 0.4 µg/mL and the LC50 (Bemisia tabaci [10]) was 1.22 µg/mL. The LC50 (Bemisia tabaci [11]) was 0.91 µg/mL, the RatioLC50 (Bemisia tabaci [12]) was 29 and the RatioLC50 (Bemisia tabaci [13]) was 415. It also gave a RatioLC50 (Bemisia tabaci [14]) of 31, an LC50 (Bemisia tabaci [15]) of 28.6 µg/mL (≈ 112 µM) and an LC50 (Bemisia tabaci [5]) of 0.99 µg/mL (≈ 3.87 µM). For the same molecule, the LC50 (Bemisia tabaci [16]) was 273 µg/mL, the RatioLC50 (Bemisia tabaci [17]) was 2.5 and the RatioLC50 (Bemisia tabaci [18]) was 2.5. It also gave a RatioLC50 (Bemisia tabaci [19]) of 0.8, a RatioLC50 (Bemisia tabaci [20]) of 1.1 and an LC50 (Bemisia tabaci [21]) of 371 µg/mL. The LC50 (Bemisia tabaci [22]) was 357 µg/mL, the LC50 (Bemisia tabaci [23]) was 231 µg/mL and the LC50 (Bemisia tabaci [24]) was 94 µg/mL. It also gave a RatioLC50 (Bemisia tabaci [25]) of 1.3, a RatioLC50 (Bemisia tabaci [26]) of 1.4 and a RatioLC50 (Bemisia tabaci [27]) of 2.1. It also gave a RatioLC50 (Bemisia tabaci [28]) of 2.7 and a RatioLC50 (Bemisia tabaci [29]) of 0.9.
For `N#C/N=C1\SCCN1Cc1ccc(Cl)nc1` [THIACLOPRID], the RatioLC50 (Bemisia tabaci [1]) was 37, the LC50 (Bemisia tabaci [3]) was 37.3 µg/mL (≈ 148 µM) and the LC50 (Bemisia tabaci [5]) was 1.02 µg/mL (≈ 4.04 µM).
Work on `CN1COCN(Cc2cnc(Cl)s2)/C1=N\[N+](=O)[O-]` [THIAMETHOXAM] yielded a RatioLC50 (Bemisia tabaci [1]) of 243, a RatioLC50 (Bemisia tabaci [2]) of 92 and an LC50 (Bemisia tabaci [3]) of 289 µg/mL (≈ 991 µM). For the same molecule, the LC50 (Bemisia tabaci [4]) was 110 µg/mL (≈ 377 µM) and the LC50 (Bemisia tabaci [5]) was 1.19 µg/mL (≈ 4.08 µM).
In the case of `CN(C)C(CSS(=O)(=O)[O-])CSS(=O)(=O)O.[Na+]` [MONOSULTAP], the RatioLC50 (Bemisia tabaci [1]) is reported as 7, the RatioLC50 (Bemisia tabaci [2]) is reported as 7 and the LC50 (Bemisia tabaci [3]) is reported as 294 µg/mL. It also gave an LC50 (Bemisia tabaci [4]) of 297 µg/mL and an LC50 (Bemisia tabaci [5]) of 43.9 µg/mL.
